Results from patent publication US20230371508A1, “COMPOSITIONS AND METHODS FOR KILLING INSECT AND NON-INSECT PESTS” (The United States of America, as represented by the …, priority 2018, published 2023).
≈ marks a conversion by molar mass, not a printed value. Entries after “also recorded” stand apart in the source; their conditions may differ. Where two headings read alike, the source gives them in different places.

Assays:
H. halys nymphs = assay: Nymphicidal toxicity, treated filter paper in glass vial; format: in vivo
Description: Toxicities of MB, some compounds of formula 1, and commercial pesticides on H. halys nymphs: The bioassays were carried out in glass vials (20 mL), following a published procedure (Nielsen, A. L., et al., J. Econ. Entomol., 101: 1439-1442 (2008)). Filter paper was cut into round shape pieces (2.4 cm diameter). 50 μL acetone solution of one derivative or commercial pesticide with different concentrations was loaded onto the filter paper evenly, and the filter paper was dried for 1 min and then put into the bottom of vial. A small piece of green bean was put on the filter paper in the vial as food source. Different stages of H. halys nymphs were introduced into the vial and capped with a cotton ball. For each stage, 30 nymphs were used for each amount. For the nymphs of the first instar, 10 nymphs were put into 1 vial. For the nymphs of the second and third instar, 5 nymphs were put into 1 vial. For the nymphs of the fourth instar, 3 nymphs were put into 1 vial. For the nymphs of the fifth instar, 2 nymphs were put into 1 vial. The mortality was assessed after 24 hr.

L. dispar larvae = assay: Larvicidal toxicity, treated filter paper in Petri dish; format: in vivo; conditions: for LC50 (95% CL): 1st stage larvae, 24 hr; for larvicidal toxicity against L. dispar (in words): in vivo
Description: Toxicities of MB and some compounds of formula 1 on L. dispar larvae: The bioassays were carried out in plastic Petri dish loaded with filter paper, following a published procedure (Nielsen 2008). 600 μL acetone solution of one derivative with different concentrations was loaded onto the filter paper (90 mm diameter) evenly, and the filter paper was dried for 2 min and then put into the bottom of Petri dish. 10 L. dispar larvae were put onto the Petri dish and covered with a lid. 30 larvae were used for each amount. The mortality was assessed after 24 hr.

D. suzukii = assay: Insecticidal activity on larvae and pupae development and adult emergence in pre-infested blueberries (dip); format: in vivo, Drosophila suzukii; conditions: for insecticidal toxicity against D. suzukii (in words): 1% concentration on 4 days pre-infested blueberries, 10 days incubation; for Adults / Larvae / Pupae: pre-infested berries soaked 2 min in 1% solution, assessed after 10 days at room temperature, mean of three replicates (standard error)
Description: Impacts of MB and other compounds on D. suzukii control: To investigate the acute toxicity of some compounds of formula 1 against D. suzukii, a published procedure was followed (Cuthbertson, A. G. S., et al., Insects, 5: 488-498 (2014)). First, mixed-sex adults D. suzukii (100) were introduced into a plastic cage (30×30×30 cm) and reared on blueberries (100) for 4 days. After that, the infested blueberries were taken out from the cage. Half of the blueberries (50) were dipped in 100 mL aqueous emulsion of each compound listed in Table 1 at 1% concentration for 2 min as treatment, while the other half of the blueberries (50) were dipped in DI water for 2 min as blank control. Then the corresponding blueberries were separately taken out, placed in two different Petri dishes, and allowed to air dry for 2 h. Second, treatment and blank control blueberries were respectively stored in two plastic cups (32 oz) with closed caps and incubated at room temperature for 10 days. The emergence of adults was then subsequently assessed. The developments of larvae and pupae were further inspected by dissection of the treatment and blank control berries. Each treatment and blank control was repeated three times.

S. invicta workers [1] = conditions: for contact toxicity against S. invicta (in words): in vivo; for increase of mean mortality compared with MB / mean mortality: dose 77.9 μg/ant, 24 h
Description: Fire ant bioassays were conducted in USDA, ARS Stoneville laboratory at 25° C., 80% R.H. with a 12:12 (L:D) photoperiod. Contact toxicities of MB and some compounds of formula 1 against fire ants: Topical application was used for contact toxicity bioassay. Only large workers were used for a purpose of relatively uniform body weight and ease of handling. For all compounds, acetone was used as a solvent. The solution was applied using a 0.779 μl capillary tube. Two experiments were conducted for assessing contact toxicity. […] In order to investigate the structure-activity relationship, LD50 values were also established for MB and EB. […] For each LD50 value, 5 doses of benzoates were used. Each dose was replicated 3 times. Each replicate consisted of 13 to 18 ants. Treated ants were placed in a 30-ml capped cup and dead ants were counted after 24 h.

S. invicta workers [2] = assay: Fumigant toxicity in sealed glass flask; format: in vivo, Solenopsis invicta; conditions: for LC50 / mortality at 1.43 µg/mL: Solenopsis invicta
Description: A 250-ml glass flask (the whole volume is 280 ml) was used to house worker ants in fumigant toxicity bioassays. Two micro-liter of acetone solution of the tested compound was applied onto a paraffin film, which was used to seal the flask with ants. The treated spot of the paraffin film faced the inside of the flask. The upper part of the flask was coated with Fluon® to prevent ants from contacting the test material. Two experiments were conducted. […] LC50 value was established using 5 dosages. Each dosage was replicated 3 times for each of 3 colonies. Each replicate consisted of 15 to 26 ants. Ants that could not stand by themselves were considered dead. Dead ants were counted after 24 h.

H. halys eggs = assay: Ovicidal toxicity, direct spray on eggs; format: in vivo; conditions: eggs sprayed, 10 days
Text: (§1) Ovicidal toxicities of MB and some compounds of formula 1: The aqueous solutions of one of the compounds of formula 1 with designated concentrations with different concentrations of active ingredient (AI) were separately stored in glass spray bottles according to a published procedure (Cuthbertson 2014). The eggs (10 for H. halys and 100 for P. xylostella) were laid on filter papers in Petri dishes. Different aqueous insecticidal solutions were sprayed on the surfaces of different eggs three times (˜0.5 mL) to completely cover the treatment areas. Then the Petri dishes were covered with lids and maintained in a fume hood for 10 days. The Petri dishes were then inspected for presence of nymph/larvae development or numbers of unhatched eggs.

Plutella xylostella eggs = assay: Ovicidal toxicity, direct spray on eggs; format: in vivo; conditions: hatchability after 10 days; 0.05% and 0.1% concentrations (FIG. 3)
Text: as §1

[3] = 24 h, read-out: mean mortality, dosage 1.43 μg/ml, 24 h

Structure (SMILES)	LC50 (95% CL) (H. halys nymphs; 3rd stage nymphs, 24 hr)	LC50 (95% CL) (L. dispar larvae)	insecticidal toxicity against D. suzukii (in words) (D. suzukii)	Adults (D. suzukii)	Larvae (D. suzukii)	Pupae (D. suzukii)	toxicity against H. halys nymphs (in words) (H. halys nymphs; in vivo)	LD50 (S. invicta workers [1]; colony 1, 24 h) [μg/ant]	LD50 (S. invicta workers [1]; colony 2, 24 h) [μg/ant]	LD50 (S. invicta workers [1]; colony 3, 24 h) [μg/ant]	LC50 (95% CL) (H. halys eggs)	mortality at 1.43 µg/mL (S. invicta workers [2]; [3]) [%]	other results
C/C(=N\C#N)N(C)Cc1ccc(Cl)nc1 [AP, acetamiprid, reference compound]	0.475 (0.301-0.641) μL/vial	0.221 (0.167-0.291) mg/cm^2											LC50 (95% CL) (H. halys nymphs; 2nd stage nymphs, 24 hr): 0.257 (0.169-0.340) μL/vial; LC50 (95% CL) (H. halys nymphs; 5th stage nymphs, 24 hr): 1.414 (1.165-1.642) μL/vial; LC50 (95% CL) (L. dispar larvae; listed as acetamiprid): 0.221 mg/cm^2
O=C(OCc1ccccc1)c1ccccc1 [BB, benzyl benzoate]			poor toxicities	40.0(8.4)	5.7(0.7)	40.0(5.8)	deficient toxicities						contact toxicity against S. invicta (in words) (S. invicta workers [1]): potent contact toxicities; LC50 (95% CL) (H. halys nymphs; in vivo): 5.619 (3.028-44.599) μL/vial; larvicidal toxicity against L. dispar (in words) (L. dispar larvae): did not show any toxicities
CCOC(=O)c1ccccc1 [EB, ethyl benzoate]	1.604 (1.468-1.756) μL/vial	0.115 (0.107-0.123) mg/cm^2		0	0	0		164.32	129.62	126.53	0.014 (0.010-0.019) mg/cm^2		LC50 (S. invicta workers [2]; 24 h, colony 1, 24 h, read-out: LC50): 0.89 µg/mL (≈ 5.93 µM); LC50 (S. invicta workers [2]; 24 h, colony 2, 24 h, read-out: LC50): 0.76 µg/mL (≈ 5.06 µM); LC50 (S. invicta workers [2]; 24 h, colony 3, 24 h, read-out: LC50): 1.14 µg/mL (≈ 7.59 µM); mortality at 1.43 µg/mL (S. invicta workers [2]; 24 h, dosage 1.43 μg/ml, 24 h, read-out: mean mortality): ~100%; LC50 (S. invicta workers [2]; 24 h, mean over colonies, 24 h, read-out: mean LC50 value): 0.93 µg/mL (≈ 6.19 µM)
COC(=O)c1ccccc1Cl [M2CB, methyl 2-chlorobenzoate]		0.130 (0.097-0.159) mg/cm^2		0	0	0					0.011 (0.008-0.013) mg/cm^2	70 to 80	LC50 (S. invicta workers [2]; 24 h, colony 1, 24 h): 0.89 µg/mL (≈ 5.22 µM); LC50 (S. invicta workers [2]; 24 h, colony 2, 24 h): 0.77 µg/mL (≈ 4.51 µM); LC50 (S. invicta workers [2]; 24 h, colony 3, 24 h): 0.56 µg/mL (≈ 3.28 µM); mean mortality (S. invicta workers [2]; dosage 1.43 μg/ml, 24 h): 79.4%; LC50 (95% CL) (H. halys nymphs; 2nd stage nymphs, 24 hr): 1.302 (1.137-1.610) μL/vial
COC(=O)c1ccccc1C [M2MB, methyl 2-methylbenzoate]		0.155 (0.134-0.174) mg/cm^2		0	0	0					0.014 (0.005-0.027) mg/cm^2	70 to 80	fumigant toxicity against S. invicta (in words) (S. invicta workers [2]; in vivo): significantly reduced; LC50 (95% CL) (H. halys nymphs; 2nd stage nymphs, 24 hr): 0.974 (0.827-1.109) μL/vial
COC(=O)c1ccccc1[N+](=O)[O-] [M2NB, methyl 2-nitrobenzoate]				0	0	0	ineffective				0.010 (0.002-0.019) mg/cm^2	0	larvicidal toxicity against L. dispar (in words) (L. dispar larvae): did not show any toxicities
COC(=O)c1cccc(C)c1 [M3MB, methyl 3-methylbenzoate]		0.102 (0.083-0.121) mg/cm^2		0	0	0		70.32	107.48	67.73	0.016 (0.009-0.024) mg/cm^2	~100	LC50 (S. invicta workers [2]; 24 h, colony 1, 24 h): 0.62 µg/mL (≈ 4.13 µM); LC50 (S. invicta workers [2]; 24 h, colony 2, 24 h): 0.7 µg/mL (≈ 4.66 µM); LC50 (S. invicta workers [2]; 24 h, colony 3, 24 h): 0.63 µg/mL (≈ 4.2 µM); LC50 (S. invicta workers [2]; 24 h, read-out: mean LC50 value, mean over colonies, 24 h): 0.65 µg/mL (≈ 4.33 µM); LC50 (95% CL) (H. halys nymphs; 4th stage nymphs, 24 hr): 2.433 (2.000-3.417) μL/vial
CC(COc1ccc(Oc2ccccc2)cc1)Oc1ccccn1 (centres unmarked) [PF, pyriproxyfen, reference compound]	1.798 (1.397-2.797) μL/vial	0.086 (0.057-0.124) mg/cm^2											LC50 (95% CL) (H. halys nymphs; 5th stage nymphs, 24 hr): 2.700 (1.881-4.836) μL/vial; LC50 (95% CL) (L. dispar larvae; listed as pyriproxyfen): 0.086 mg/cm^2
CC(C)COC(=O)c1ccccc1 [iBB, iso-butyl benzoate]	4.890 (2.845-24.779) μL/vial	0.193 (0.165-0.234) mg/cm^2	poor toxicities	24.7(0.9)	6.0(1.5)	15.7(1.9)	deficient toxicities	80.07	96.57	55.75			
CCCCOC(=O)c1ccccc1 [nBB, n-butyl benzoate]		0.276 (0.223-0.393) mg/cm^2		25.3(1.5)	4.7(1.2)	15.0(2.9)		77.13	68.51	50.04		2.34	contact toxicity against S. invicta (in words) (S. invicta workers [1]): comparable results; also recorded: potent contact toxicities; decrease of mean mortality compared with MB (S. invicta workers [2]; dosage 1.43 μg/ml, 24 h): 42 times; LC50 (95% CL) (H. halys nymphs; 4th stage nymphs, 24 hr): 3.370 (2.441-6.922) μL/vial
CCCCCOC(=O)c1ccccc1 [nPeB, n-pentyl benzoate]		0.165 (0.118-0.208) mg/cm^2	did not show any insecticidal activities	36.3(3.9)	5.3(0.9)	37.7(6.7)	did not show toxicities	35.97	41.16	28.64			increase of mean mortality compared with MB (S. invicta workers [1]): 13 times; mean mortality (S. invicta workers [1]): 99.26%; contact toxicity against S. invicta (in words) (S. invicta workers [1]): comparable results; also recorded: potent contact toxicities; ovicidal toxicity against P. xylostella eggs (in words) (Plutella xylostella eggs): comparable toxicity comparing with MB
CCCOC(=O)c1ccccc1 [nPrB, n-propyl benzoate]	2.591 (2.086-3.839) μL/vial	0.159 (0.135-0.199) mg/cm^2	good insecticidal toxicity	3.0(0.6)	1.7(0.3)	4.0(0.6)		109.89	109.26			79.4	increase of mean mortality compared with MB (S. invicta workers [1]): 6 times; mean mortality (S. invicta workers [1]): 45.5%
